Legend:
Assay type in all cases: functional
HCT-116 [1] = experiment: Induction of apoptosis in human HCT116 cells assessed as late apoptotic cells at 10 uM after 12 hrs by Annexin V-FITC/propidium iodide staining based flow cytometry (reference value: 3.37%)
HCT-116 [2] = experiment: Induction of apoptosis in human HCT116 cells assessed as early apoptotic cells at 10 uM after 12 hrs by Annexin V-FITC/propidium iodide staining based flow cytometry (reference value: 1.13%)
HCT-116 [3] = experiment: Induction of apoptosis in human HCT116 cells assessed as early apoptotic cells at […] after 24 hrs by Annexin V-FITC/propidium iodide staining based flow cytometry (reference value: 2.2%)
HCT-116 [4] = experiment: Induction of apoptosis in human HCT116 cells assessed as late apoptotic cells at […] after 24 hrs by Annexin V-FITC/propidium iodide staining based flow cytometry (reference value: 3.73%)
HCT-116 [5] = experiment: Induction of apoptosis in Bax deficient human HCT116 cells assessed as early apoptotic cells at […] after 24 hrs by Annexin V-FITC/propidium iodide staining based flow cytometry (reference value: 0.85%)
HCT-116 [6] = experiment: Induction of apoptosis in human HCT116 cells assessed as necrotic cells at […] after 24 hrs by Annexin V-FITC/propidium iodide staining based flow cytometry (reference value: 0.44%)
HCT-116 [7] = experiment: Induction of apoptosis in Bax deficient human HCT116 cells assessed as late apoptotic cells at […] after 24 hrs by Annexin V-FITC/propidium iodide staining based flow cytometry (reference value: 1.56%)
HCT-116 [8] = experiment: Induction of apoptosis in human HCT116 cells assessed as viable cells at […] after 24 hrs by Annexin V-FITC/propidium iodide staining based flow cytometry (reference value: 93.64%); details: HCT-116, 24 h, read-out: Activity

| Compound | Activity (HCT-116 [1]) [%] | Activity (HCT-116 [2]) [%] | Activity (HCT-116 [3]) [%] | Activity (HCT-116 [4]) [%] | Activity (HCT-116 [5]) [%] | Activity (HCT-116 [6]) [%] | Activity (HCT-116 [7]) [%] | viability (HCT-116 [8]) [%] |
| --- | --- | --- | --- | --- | --- | --- | --- | --- |
| CO[C@H]1C(C=O)=CC[C@@H]2C3=C(C(C)C)CC[C@]3(C)CC[C@@]2(C)[C@H]1O | 3.68 | 3.83 |  |  |  |  |  |  |
| OC(CS)C(O)CS (racemic) [DL-DITHIOTHREITOL] |  |  | 3.12 | 8.67 | 2.99 | 0.21 | 3.5 | 88 |
| CC(=O)N[C@@H](CS)C(=O)O [ACETYLCYSTEINE] |  |  | 1.86 | 5.62 | 1.21 | 0.7 | 1.75 | 91.8 |

From ChEMBL document CHEMBL3769391, “Identification of a new cyathane diterpene that induces mitochondrial and autophagy-dependent apoptosis and shows a potent in vivo anti-colorectal cancer activity” (Eur J Med Chem, 2016)
